Results on 11 molecules are retold here after paper PMC11876601 (Molecular Systems Biology, 2025).

Molecules are shown by their SMILES. Like-named read-outs stand apart in the source and are kept apart here.

What all share (assay): cells
Assay [1] has as its system AsPC-1. On the set-up: ATPlite luminescence viability of PDAC cell lines, 11-dose single-agent curves, 4-parameter fit. Particulars: Homo sapiens, ASPC1, 72 h, read-out: EC50 [nM]. The procedure, abridged:
(§1)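 cells (1000 to 5000 per well) seeded 24 h before drug addition in a combination screen at 0.2% final DMSO. Controls were drug-free wells (negative) and 5 µM staurosporine (positive).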

The test system of assay [2] is FAMPAC. On the set-up: ATPlite luminescence viability of PDAC cell lines, 11-dose single-agent curves, 4-parameter fit. Conditions: 72 h, read-out: EC50 [nM]. In short, it runs like this: as §1
Assay [3] relates to PSN-1. Also on record: ATPlite luminescence viability of PDAC cell lines, 11-dose single-agent curves, 4-parameter fit. Particulars: Homo sapiens, PSN1, 72 h, read-out: EC50 [nM]. The procedure, abridged: as §1
Assay [4] has as its system BxPC-3. On the set-up: ATPlite luminescence viability of PDAC cell lines, 11-dose single-agent curves, 4-parameter fit. Conditions: Homo sapiens, BXPC-3, 72 h, read-out: EC50 [nM]. In short, it runs like this: as §1
The subject of assay [5] is MiaPaCa-2. Also on record: ATPlite luminescence viability of PDAC cell lines, 11-dose single-agent curves, 4-parameter fit. Conditions: Homo sapiens, MIA PaCa-2, 72 h, read-out: EC50 [nM]. The procedure, abridged:
as §1

Assay [6] concerns Colo-357. On the set-up: Viability of PDAC cell lines, ATPlite luminescence, 11-dose single-agent curve fit. Particulars: Homo sapiens, COLO357, 72 h, read-out: EC50 [nM]. The procedure, abridged: (§2)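 cells (1000 to 5000 per well) seeded 24 h before drug addition in a screen at 0.2% final DMSO. Controls were drug-free wells (negative) and 5 µM staurosporine (positive).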
Assay [7] concerns PaTu-8988-T. On the set-up: Viability of PDAC cell lines, ATPlite luminescence, 11-dose single-agent curve fit. Conditions: Homo sapiens, PaTu 8988t, 72 h, read-out: EC50 [nM]. In short, it runs like this:
as §2

Assay [8] deals with HuP-T4. Also on record: Viability of PDAC cell lines, ATPlite luminescence, 11-dose single-agent curve fit. Particulars: Homo sapiens, HuP-T4, 72 h, read-out: EC50 [nM]. The procedure, abridged: as §2
The test system of assay [9] is PANC-1. On the set-up: Viability of PDAC cell lines, ATPlite luminescence, 11-dose single-agent curve fit. Particulars: Homo sapiens, PANC-1, 72 h, read-out: EC50 [nM]. In short, it runs like this:
as §2

Assay [10] relates to Capan-1. Also on record: Viability of PDAC cell lines, ATPlite luminescence, 11-dose single-agent curve fit. Conditions: Homo sapiens, CAPAN-1, 72 h, read-out: EC50 [nM]. The procedure, abridged: as §2
Assay [11] deals with Dan-G. On the set-up: Viability of PDAC cell lines, ATPlite luminescence, 11-dose single-agent curve fit. Particulars: 72 h, read-out: EC50 [nM]. The procedure, abridged: as §2
The test system of assay [12] is Suit2-07. On the set-up: Viability of PDAC cell lines, ATPlite luminescence, 11-dose single-agent curve fit. Conditions: 72 h, read-out: EC50 [nM]. In short, it runs like this: as §2
The subject of assay [13] is HPDE. Also on record: Viability of PDAC cell lines, ATPlite luminescence, 11-dose single-agent curve fit. Conditions: HPDE, 72 h, read-out: EC50 [nM]. In short, it runs like this:
as §2

Assay [14] relates to Colo-357. Also on record: ATPlite luminescence viability of PDAC cell lines, 11-dose single-agent curves, 4-parameter fit. Conditions: Homo sapiens, COLO357, 72 h, read-out: EC50 [nM]. In short, it runs like this: as §1
In assay [15] the test system is Dan-G. On the set-up: ATPlite luminescence viability of PDAC cell lines, 11-dose single-agent curves, 4-parameter fit. Particulars: 72 h, read-out: EC50 [nM]. In short, it runs like this:
as §1

Assay [16] concerns AsPC-1. On the set-up: Viability of PDAC cell lines, ATPlite luminescence, 11-dose single-agent curve fit. Particulars: Homo sapiens, ASPC1, 72 h, read-out: EC50 [nM]. The procedure, abridged: as §2
Assay [17] relates to FAMPAC. Also on record: Viability of PDAC cell lines, ATPlite luminescence, 11-dose single-agent curve fit. Conditions: 72 h, read-out: EC50 [nM]. In short, it runs like this: as §2
Assay [18] relates to PSN-1. Also on record: Viability of PDAC cell lines, ATPlite luminescence, 11-dose single-agent curve fit. Conditions: Homo sapiens, PSN1, 72 h, read-out: EC50 [nM]. The procedure, abridged:
as §2

Assay [19] has as its system BxPC-3. On the set-up: Viability of PDAC cell lines, ATPlite luminescence, 11-dose single-agent curve fit. Conditions: Homo sapiens, BXPC-3, 72 h, read-out: EC50 [nM]. The procedure, abridged: as §2
For assay [20], the system named is MiaPaCa-2. On the set-up: Viability of PDAC cell lines, ATPlite luminescence, 11-dose single-agent curve fit. Conditions: Homo sapiens, MIA PaCa-2, 72 h, read-out: EC50 [nM]. The procedure, abridged:
as §2

In assay [21] the test system is Suit2-07. On the set-up: ATPlite luminescence viability of PDAC cell lines, 11-dose single-agent curves, 4-parameter fit. Conditions: 72 h, read-out: EC50 [nM]. The procedure, abridged: as §1
Assay [22] concerns PaTu-8988-T. Also on record: ATPlite luminescence viability of PDAC cell lines, 11-dose single-agent curves, 4-parameter fit. Particulars: Homo sapiens, PaTu 8988t, 72 h, read-out: EC50 [nM]. In short, it runs like this: as §1

As for `Cn1cnc2c(F)c(Nc3ccc(Br)cc3F)c(C(=O)NOCCO)cc21` [Binimetinib], the EC50 – broadly, the midpoint of the concentration-response curve – in assay [1] was found to be 83.9 nM; in assay [2], 2430 nM; in assay [3] it was 71.8 nM; in assay [4], 381 nM; in assay [5], 10.7 nM; in assay [6], 58.4 nM. For the same molecule, the EC50 in [7] amounted to 155 nM; in assay [8], 176 nM; in assay [9], 350 nM; in [10] it was 401 nM; in [11], 504 nM; in assay [12], 112 nM. Further, in [13], the EC50 amounted to 222 nM.
As for `CC[C@H](Nc1ncnc2[nH]cnc12)c1nc2cccc(F)c2c(=O)n1-c1ccccc1` [Idelalisib], the concentration for a half-maximal effect (EC50) is 3360 nM in assay [14]; 2130 nM in assay [15]; 2530 nM in assay [16]; 10000 nM in [7]; 754 nM in assay [8]; more than 10000 nM in assay [17]. The EC50 worked out at 3010 nM in assay [9]; 9330 nM in assay [10]; 545 nM in [18]; 3910 nM in [19]; 8760 nM in [20]; 5950 nM in assay [12]. Moreover, in [13], the EC50 was determined as 9240 nM.
Consider `CC(C)N1CCN(Cc2cnc(-c3cc(-c4cccc5[nH]ccc45)cc4[nH]ncc34)o2)CC1` [Nemiralisib], for which the EC50 in [1] was more than 10000 nM; in [4], 4420 nM; in assay [5], more than 10000 nM; in assay [21], more than 10000 nM; in [6] it was 3010 nM; in [7], 811 nM. In addition, the EC50 in assay [8] was 3260 nM; in assay [17], more than 10000 nM; in [9] it was more than 10000 nM; in [10], 10.5 nM; in [18], 5830 nM; in assay [11], 5040 nM. In addition, the EC50 in assay [13] was determined as 7360 nM.
Regarding `CC(=O)c1c(C)c2cnc(Nc3ccc(N4CCNCC4)cn3)nc2n(C2CCCC2)c1=O` [Palbociclib], the EC50 was 5610 nM in [14]; more than 10000 nM in [22]; more than 10000 nM in [3]; 8540 nM in assay [15]; more than 10000 nM in assay [5]; more than 10000 nM in assay [21]. The EC50 in assay [16] was 4830 nM; in assay [8], 0.1 nM; in assay [17] it was 1390 nM; in assay [9], more than 10000 nM; in [10], 5070 nM; in assay [19] it was 2930 nM. Also, the EC50 in assay [13] was more than 10000 nM.
Consider `Cc1cc2cc(Oc3ccnc(Nc4cccc(CS(=O)(=O)NCCN(C)C)c4)n3)ccc2[nH]1` [Sulfatinib], for which the EC50 in assay [22] is more than 10000 nM; in assay [5], 3080 nM; in assay [6], 6810 nM; in assay [16], more than 10000 nM; in assay [8] it was 1900 nM; in [17] it was more than 10000 nM. Moreover, the EC50 in [9] is 7980 nM; in assay [10], 3530 nM; in [18], 5780 nM; in [19], 4560 nM; in assay [11], more than 10000 nM; in assay [12], more than 10000 nM. In addition, the EC50 in assay [13] worked out at 5550 nM.
Consider `CO[C@]1(C(=O)N[C@@H](C)c2ccc(-n3cc(F)cn3)nc2)CC[C@H](c2nc(C)cc(Nc3cc(C)[nH]n3)n2)CC1` [Pralsetinib], for which the EC50 in assay [14] was found to be 6960 nM; in [22], 6490 nM; in assay [2] it was 5210 nM; in assay [3], 5870 nM; in [4] it was 2910 nM; in assay [15] it was 6680 nM. Moreover, the EC50 in [5] is 773 nM; in assay [21] it was more than 10000 nM; in assay [16], 1820 nM; in assay [8], 4550 nM; in assay [9] it was 1860 nM; in assay [10], more than 10000 nM. Moreover, the EC50 in assay [13] amounted to 4600 nM.
For `N#CCNC(=O)c1ccc(-c2ccnc(Nc3ccc(N4CCOCC4)cc3)n2)cc1` [Momelotinib], the EC50 in assay [22] is more than 10000 nM; in assay [2], more than 10000 nM; in assay [3], more than 10000 nM; in assay [5] it was more than 10000 nM; in [21], 5780 nM; in assay [6], 953 nM. For the same molecule, the EC50 in assay [16] was determined as 4110 nM; in assay [8], 2670 nM; in assay [9] it was 8650 nM; in assay [10], 9140 nM; in assay [11], 6780 nM; in assay [13], 8470 nM.
As for `Cc1cc(Nc2ncnc3ccc(NC4=NC(C)(C)CO4)cc23)ccc1Oc1ccn2ncnc2c1` [Tucatinib], the EC50 in assay [14] was 240 nM; in [15], 222 nM; in assay [16] it was more than 10000 nM; in assay [7], more than 10000 nM; in assay [8], 292 nM; in assay [17], 7060 nM. Also, the half-maximal effective concentration (EC50) is 5670 nM in assay [9]; 121 nM in assay [10]; 24.4 nM in assay [18]; 1010 nM in [19]; 7710 nM in assay [20]; more than 10000 nM in [12]. Also, the EC50 in assay [13] was 3660 nM.
As for `Cc1cc2c(F)c(Oc3ncnn4cc(OC[C@@H](C)OC(=O)[C@H](C)N)c(C)c34)ccc2[nH]1` [Brivanib alaninate], the EC50 in [14] is 3560 nM; in assay [16], 3000 nM; in assay [7], more than 10000 nM; in [8], 2460 nM; in assay [17], more than 10000 nM; in assay [9], 3760 nM. Further, the EC50 in [10] is more than 10000 nM; in assay [18], 3990 nM; in assay [19] it was more than 10000 nM; in assay [11] it was 3820 nM; in assay [20], 3140 nM; in [12], more than 10000 nM. Further, the half-maximal effective concentration (EC50) in assay [13] amounted to 3160 nM.
Turning to `CC(C)NC[C@@H](C(=O)N1CCN(c2ncnc3c2[C@H](C)C[C@H]3O)CC1)c1ccc(Cl)cc1` [Ipatasertib], the EC50 came out at 151 nM in assay [14]; 1150 nM in assay [15]; 3240 nM in assay [21]; 154 nM in assay [16]; 543 nM in assay [7]; 310 nM in [8]. The EC50 in [17] is 642 nM; in assay [9] it was more than 10000 nM; in assay [10] it was 4690 nM; in assay [18], 7080 nM; in assay [19], 246 nM; in assay [20], 3940 nM. Besides, the EC50 in [13] worked out at 5290 nM.
With `Cn1cnc2c(F)c(Nc3ccc(Br)cc3Cl)c(C(=O)NOCCO)cc21` [Selumetinib], the EC50 in [1] turned out to be 59.5 nM; in assay [2] it was 8370 nM; in assay [3] it was 229 nM; in assay [4] it was 1360 nM; in assay [5], 24.1 nM; in [6] it was 22.3 nM. In addition, the EC50 came out at 94.7 nM in assay [7]; 276 nM in assay [8]; 87.4 nM in assay [9]; 4670 nM in assay [10]; 1490 nM in assay [11]; 451 nM in assay [12]. In addition, the EC50 in assay [13] came out at 268 nM.
